One may read the IC50 as the concentration needed to halve the response being measured. Read a low IC50 as inhibition by little substance. Usually melting point stands for the temperature of the solid-liquid transition.

Data set [1] concerns HCV replicon RNA (Renilla luciferase HCV replicon cells 2209-23, human hepatoma Huh7). The experiment in a line: Renilla luciferase HCV replicon assay. It is filed as cell-based, hepatitis C virus (HCV). The following applies: Huh-7, 72 h; replicon cells 2209-23, incubated three days at 37° C.; concentration reducing replicon level by 50%.
For data set [2] the following is noted: monotherapy; cited from earlier work.
The subject of a further data set is HIV. To be noted: cited from earlier work.

In the case of `[N-]=[N+]=N[C@]1(CO)O[C@@H](n2ccc(N)nc2=O)[C@@H](O)[C@@H]1O` [Compound I-1, 4-Amino-1-((2R,3S,4S,5R)-5-azido-3,4-dihydroxy-5-hydroxymethyl-tetrahydro-furan-2yl)-1H-pyrimidin-2-one], the IC50 in data set [1] is 220 nM. The compound `CCCCCCCCCCCCCC(=O)OC[C@@]1(N=[N+]=[N-])O[C@@H](n2ccc(N)nc2=O)[C@@H](O)[C@@H]1O` had a melting point of 110.3 to 119.3 °C. In turn, `CC(C)C(NC(=O)OC(C)(C)C)C(=O)OC[C@@]1(N=[N+]=[N-])O[C@@H](n2ccc(N)nc2=O)[C@@H](O)[C@@H]1O` (stereo partly shown) showed a melting point of 106.9 to 107.3 °C.

As for `NC(=O)c1ncn([C@@H]2O[C@H](CO)[C@@H](O)[C@H]2O)n1` [ribavirin, 1-((2R,3R,4S,5R)-3,4-Dihydroxy-5-hydroxymethyl-tetrahydro-furan-2-yl)-1H-[1,2,4]triazole-3-carboxylic acid amide], in data set [2], the “effect on serum levels of HCV-RNA” value was “does not lower” and the “patients in whom serum amino transferase levels are reduced to normal” value is on record as 40%. The compound `CCCCC(=O)O[C@@H]1[C@H](n2ccc(N)nc2=O)O[C@@](CO)(N=[N+]=[N-])[C@H]1OC(=O)CCCC` gave a melting point of 160.4 to 162.2 °C. For the compound `C#CC1(CO)OC(n2ccc(N)nc2=O)C(O)C1O` (stereo not shown) [Compound 12a, 4-Ethynyl-cytarabine], in the data set with HIV, the anti-HIV activity result was “good anti-HIV activity”.

Values taken from patent publication US7378402B2, “Anti-viral nucleosides” (Roche Palo Alto LLC, priority 2004, dated 2008).
